Assay results as given in patent US10718769B2, “Compounds comprising one or more hydrophobic domains and a hydrophilic domain comprising peg moieties, useful for binding cells” (Roche Diagnostics Operations, Inc., priority 2013, dated 2020).
“And” between values parts separate entries of the source, which are not always exact repeats. Equal values may be shown once. Read-outs that look alike come from different tables or passages of the source.

Tests used:
[1] = system: Jurkat cells; conditions: centrifugation 20 min, 500×g; within 5.5 h incubation with molecule
Method: Respective columns from left: 1: 10 min incubation with molecule. 2: 1 h incubation with molecule. 3: 3,5 h incubation with molecule. 4: 5.5 h min incubation with molecule. Following molecules were tested: 1255: 3′-(Myristic acid)2-PEG2000-dT-Biotin-TEG-5′ INVERS. 1234: 5′-(Cholesteryl-TEG)2-Spacer C18-dT-Biotin-TEG-3′; 1248: 3′-(Cholesteryl-TEG)2-PEG2000-Fluos-Biotin-TEG-5′ INVERS; 1254: 3′-(Cholesteryl-TEG)2-SpacerC18-Fluos-Biotin-TEG-5′ INVERS. […] Centrifugation characteristics: 20 min, 500×g.
(§1) Following molecules were tested: • 1255: 3′-(Myristic acid)2-PEG2000-dT-Biotin-TEG-5′ INVERS • 1234: 5′-(Cholesteryl-TEG)2-Spacer C18-dT-Biotin-TEG-3′ • 1248: 3′-(Cholesteryl-TEG)2-PEG2000-Fluos-Biotin-TEG-5′ INVERS • 1254: 3′-(Cholesteryl-TEG)2-SpacerC18-Fluos-Biotin-TEG-5′ INVERS
Centrifugation characteristics: 20 min, 500×g.

[2] = system: white blood cells (WBCs); conditions: for WBC per well: 300 000 WBCs/well
Method: Aim of this experiment: Testing of the white blood cell immobilization on a streptavidin-coated surface using different molecules of the invention. In particular, the performance of a single cholesterol-molecule and different dual-linker molecules (i.e. containing two hydrophobic moieties) was tested. In detail, immobilization of white blood cells (WBCs) on a Streptavidin-coated surface using different linker molecules was tested on a 12-well plate: 300 000 WBCs/well. This was followed by the measurement of the cell recovery rate after immobilization and washing of the cells using the Cellavista instrument (10× Nuclei Operator s9s5).

[3] = system: WBC (white blood cells); conditions: for MW (mean WBC per well): target: 300.000 WBC
Method: 4× determination. Row A: 200 μl PBS introduced, 1 nmol of compound added thereto respectively, mixed, incubated about 30 min, washed 2×PBS, 800 μl PBS introduced, 300.000 WBC (untreated) added. Row B: 800 μl PBS introduced, 300.000 WBC (untreated) added. Row C: 10×10^6 WBC in 1 ml with 10 nmol compound of invention 10 min incubated, 800 μl PBS/Well introduced, 300.000 treated WBC respectively. The first MTP plate washed after 30 min 2× with PBS, overlayed with Höchst and incubated for 15 min.>Cellavista (Operator s9s5) measured. The second plate was measured after 90 min. The third plate was measured after 150 min.
The experiments were performed for different incubation times, as shown below:
As starting material 5′-(Cholesteryl-TEG)2-PEG2000-Fluos-Biotin_TEG-3′ INVERS
(14530 pmol/μl) (Internal Reference No.: 29.891250), and a streptavidin treated MTP (Microcoat), 12 Well plate were used.
Erythrocyte lysis was performed as follows:
EDTA-whole blood 59.423 6.400 WBC/μl (Ambulanz Roche)
lysis buffer: 100 mM NH4Cl+5 mM Hepes+0.5 mM KHCO3+0.1 mM EDTA-K
Ca 1×8 ml whole blood filled in 50 ml Falcon tube with lysis buffer, incubate at room temperature for 10 min
15 min at 250 g centrifugated, pellet resuspended by pipetting in and out in lysis buffer; filled to 50 ml with lysis buffer
15 min 250 g centrifugated, pellet resuspended with PBS, filled to 50 ml with PBS, 15 min 250 g centrifugated, filled to 50 ml with PBS
The design of the experiment on the plate is explained below (see FIG. 2):
3×12 Well MTP: Treatment of the WBC with compounds of the invention:
Row A: 200 μl PBS introduced, 1 nmol of compound added thereto respectively, mixed, incubated about 30 min, washed 2×PBS,
800 μl PBS introduced, 300.000 WBC (untreated) added.
Row B: 800 μl PBS introduced, 300.000 WBC (untreated) added.
Row C: 10×10^6 WBC in 1 ml with 10 nmol compound of invention 10 min incubated, 800 μl PBS/Well introduced, 300.000 treated WBC respectively.
The first MTP plate washed after 30 min 2× with PBS, overlaid with Höchst and incubated for 15 min.>Cellavista (Operator s9s5) measured.
The second plate was measured after 90 min.
The third plate was measured after 150 min.

[4] = system: Epithelial cells; test: Labelling of cells using compounds of the invention; format: cell-based
From the text: (§2) 2. Labelling of Cells Using Compounds of the Invention

[5] = system: MDA-MB468; test: as above; format: cell-based
From the text: as §2

[6] = system: U937; test: as above; format: cell-based
From the text: as §2

[7] = system: WBCs; test: as above; format: cell-based
From the text: as §2

[8] = system: WBC; test: WBC recovery rate after centrifugation (stabilization of cells, Example 5); format: cell-based; conditions: centrifugation 10 min, 300×g
Method: (§3) Centrifugation characteristics: 10 min, 300×g.
as §3
The respective left, middle and right columns per assay represent different Experimenters 1, 2 and 3. […] Centrifugation characteristics: 10 min, 300×g. Molecule: Cholesteryl-TEG-Cholesteryl-TEG-(SpacerC18)7-Fluos-Biotin-TEG.
(§4) Following molecules were tested: 1234: 5′-(Cholesteryl-TEG)2-Spacer C18-dT-Biotin-TEG-3′; 1248: 3′-(Cholesteryl-TEG)2-PEG2000-Fluos-Biotin-TEG-5′ INVERS; 1254: 3′-(Cholesteryl-TEG)2-SpacerC18-Fluos-Biotin-TEG-5′ INVERS; 1255: 3′-(Myristic acid)2-PEG2000-dT-Biotin-TEG-5′ INVERS. […] Centrifugation characteristics: 20 min, 300×g. Respective left column: 10 min incubation with molecule. Respective middle column: 1 h min incubation with molecule. Respective right column: 2 h incubation with molecule.
Following molecules were tested: 1255: 3′-(Myristic acid)2-PEG2000-dT-Biotin-TEG-5′ INVERS; 1234: 5′-(Cholesteryl-TEG)2-Spacer C18-dT-Biotin-TEG-3′; 1248: 3′-(Cholesteryl-TEG)2-PEG2000-Fluos-Biotin-TEG-5′ INVERS; 1254: 3′-(Cholesteryl-TEG)2-SpacerC18-Fluos-Biotin-TEG-5′ INVERS. […] Centrifugation characteristics: 20 min, 500×g. Respective left column: 10 min incubation with molecule. Respective middle column: 1 h min incubation with molecule. Respective right column: 3 h incubation with molecule.
as §4, with “tested: 1255: 3′-(Myristic acid)2-PEG2000-dT-Biotin-TEG-5′ INVERS;” for “tested:”, “3′-(Cholesteryl-TEG)2-SpacerC18-Fluos-Biotin-TEG-5′” for “3′-(Cholesteryl-TEG)2-SpacerC18-Fluos-Biotin-TEG-5′ INVERS; 1255: 3′-(Myristic acid)2-PEG2000-dT-Biotin-TEG-5′”, “1000×g.” for “300×g.”
The effect of compounds of the invention on stabilizing cells and on immobilization was determined.
Centrifugation characteristics: 10 min, 300×g. A: Choleseryl-TEG-Cholesteryl-TEG-(SpacerC18)7-Fluos-Biotin-TEG.
Centrifugation characteristics: 10 min, 300×g. Molecule: Cholesteryl-TEG-Cholesteryl-TEG-(SpacerC18)7-Fluos-Biotin-TEG.
Centrifugation characteristics: 20 min, 300×g.
as §1

[9] = system: Hela; test: Labelling of cells using compounds of the invention; format: cell-based; conditions: * one cell stained weakly
From the text: as §2

[10] = system: CHO; test: as above; format: cell-based
From the text: as §2

[11] = Sample 1, first block of the table (r4-r12), footnote: 1 nmol/10e6 WBCs
[12] = Sample 1, second block of the table (r13-r21), compound concentration: 1 nmol/10e6 WBCs
[13] = Sample 2, compound concentration: 100 pmol/10e6 WBCs
[14] = Sample 2, compound concentration: 1 nmol/10e6 WBCs

3′-(Cholesteryl-TEG)2-PEG2000-Fluos-Biotin-TEG-5′ INVERS [compound 1248]
Stability of Jurkat culture cells during centrifugation [1]: stable during centrifugation processes

5′-(Cholesterol-TEG)1-Doubler-dT-Biotin-3′ [29.891272]
WBC per well [2, 11]: 147132 and 179643 and 181620 | WBC per well [2, 12]: 199973 and 220701 and 228481 | Mean (WBC per well) [2, 13]: 186316.33 | WBC per well [2, 13]: 161504 and 201424 and 196021 | Mean (WBC per well) [2, 14]: 247418.33 | WBC per well [2, 14]: 241232 and 254894 and 246129

5′-(Cholesteryl-TEG)2-PEG2000-Fluos-Biotin_TEG-3′ INVERS [29.891250]
Mean % / WBC recovery rate [%] ([3]; 30 min, WBC treated (molecule of invention + cells)): 77.28% | MW (mean WBC per well) ([3]; 30 min, WBC treated): 231829.75 | Mean % / WBC recovery rate [%] ([3]; 30 min, Well treated (molecule of invention bound to surface)): 21.64% | MW (mean WBC per well) ([3]; 30 min, Well treated): 64909 | Mean % / WBC recovery rate [%] ([3]; 90 min, WBC treated (molecule of invention + cells)): 83.12% and 83.1% | MW (mean WBC per well) ([3]; 90 min, WBC treated): 249346.25 | Mean % / WBC recovery rate [%] ([3]; 90 min, Well treated (molecule of invention bound to surface)): 47.62% and 47.6% | MW (mean WBC per well) ([3]; 90 min, Well treated): 142865 | Mean % / WBC recovery rate [%] ([3]; 120 min, WBC treated (molecule of invention + cells)): 86.23% | MW (mean WBC per well) ([3]; 120 min, WBC treated): 258692.75 | Mean % / WBC recovery rate [%] ([3]; 120 min, Well treated (molecule of invention bound to surface)): 57.02% | MW (mean WBC per well) ([3]; 120 min, Well treated): 171062.75

5′-(Cholesteryl-TEG)2-Spacer C12-dT-Biotin_TEG-3′ INVERS [29.891253]
WBC per well [2, 11]: 105061 and 128195 and 139678 | WBC per well [2, 12]: 218861 and 221471 and 208802 | Mean (WBC per well) [2, 13]: 187757.67 | WBC per well [2, 13]: 178919 and 197130 and 187224 | Mean (WBC per well) [2, 14]: 237052.33 | WBC per well [2, 14]: 239105 and 240632 and 231420

5′-Cholesteryl-TEG-PEG2000-Fluos-3′ [BMO 29.891132]
Labelling (staining) of Epithelial cells [4]: √ | Labelling (staining) of MDA-MB468 [5]: √ | Labelling (staining) of U937 [6]: √ | Labelling (staining) of WBCs [7]: √ not all

5′-CholesterylTEG-CholesterylTEG-(SpacerC18)7-Fluos-BiotinTEG-3′ [BMO 29.891222_Ch03]
WBC recovery rate after centrifugation, dependence on concentration [8]: The higher the molecule concentration, the higher the cell recovery rate after centrifugation | Cell stabilization with different experimenters ([8]; Experimenters 1, 2 and 3): cell stabilization is independent on the experimenter | WBC recovery rate after centrifugation, dependence on concentration ([8]; listed as molecule A): The higher the molecule concentration, the higher the cell recovery rate after centrifugation

5′-alphaTocopherolTEG-PEG2000-Fluos-3′ [BMO 29.891131]
Labelling (staining) of Epithelial cells [4]: √ | Labelling (staining) of MDA-MB468 [5]: √ | Labelling (staining) of U937 [6]: √ | Labelling (staining) of WBCs [7]: √ not all

CCCCCCCCCCCCCCCC(=O)OC[C@H](COP(=O)(O)OCCNC(=O)CCc1ccc2n1[B-](F)(F)[N+]1=C(C)C=C(C)C1=C2)OC(=O)CCCCCCCCCCCCCCC.CCN(CC)CC [Phosphatidylethanolamine, N-(4,4-difluoro-5,7-dimethyl-4-bora-3a,4a-diaza-s-indacene-3-propionyl)-1,2-dihexadecanoyl-sn-glycero-3-phosphoethanolamine, triethylammonium salt]
Labelling (staining) of Hela [9]: x/√ very weak

CCCCCCCCCCCCC/C=C/[C@@H](O)[C@H](COP(=O)([O-])OCC[N+](C)(C)C)NC(=O)CCCCc1ccc2n1[B-](F)(F)[N+]1=C(C)C=C(C)C1=C2 [Sphingomyelin, N-(4,4-difluoro-5,7-dimethyl-4-bora-3a,4a-diaza-s-indacene-3-pentanoyl)sphingosyl phosphocholine]
Labelling (staining) of CHO [10]: x very weak | Labelling (staining) of Epithelial cells [4]: √ | Labelling (staining) of Hela [9]: √ | Labelling (staining) of WBCs [7]: (x)- very bad

Biotin-PEG-Lysin-(C18)2
WBC recovery rate after centrifugation, dependence on concentration ([8]; listed as molecule B): The higher the molecule concentration, the higher the cell recovery rate after centrifugation

Sulfo-JA133-phenylboronic acid [BMO: 15.000078]
Labelling (staining) of Epithelial cells [4]: √ | Labelling (staining) of WBCs [7]: √ not all
